What was measured:
[1] = Half-life of thermal decomposition; format: physicochemical
Protocol: (§1) It produces 179 cc. of gas per gram at 110° C. The following half-life data have been determined:
(§2) To a rapidly stirred mixture of 39.0 g. (0.2 m.) 1 -tert.-butylhydrazo-1-cyanocyclohexane, 200 ml. methylene chloride and 100 ml. water was added 14.3 g. […] The reaction was stirred an additional 15 mins. after the addition was complete. The methylene chloride layer was separated, washed twice with 50 ml. portions of saturated NaHCO3 solution, dried over anhydrous sodium sulfate, filtered and the methylene chloride evaporated on a rotating evaporator to obtain 35.0 g. of liquid product that assayed 86.5% by an ultra violet spectrophotometric analysis. Distillation gave a product, b.p. 71° C./1.2 mm. of Hg that assayed 97.6% as 1-tert.-butylazo- 1-cyanocyclohexane. The infrared spectrum was in accord with this structure. […] It produces 146 cc. of gas per gram at 130° C. The following half-life data have been determined:
The following half-life data have been determined by gas evolution technique using trichlorobenzene as the solvent: […]

[2] = Temperature of nitrogen/gas evolution, thermal stability; details: for temperature at which it evolves nitrogen: evolves nitrogen at / above; for temperature at which it begins to evolve nitrogen: begins to evolve nitrogen (slowly)
[3] = Solubility in petroleum hydrocarbon and common organic solvents; format: physicochemical
[4] = Gas produced per gram on thermal decomposition; format: physicochemical; details: 110° C.
Protocol: as §1
as §2, with “C.” for “C. The following half-life data have been determined:”

[5] = Preliminary toxicological studies
Description: The new compositions of the present invention eliminate these problems. Most of the new compositions are liquids and are soluble in petroleum hydrocarbon and most of the other common organic solvents. Thus, no dusting, metering, incorporating, mixing, and dispersing problems are encountered in using these new compositions. […] The less toxic nature of the new compositions coupled with their liquid and high solubility properties allows them to be used in many applications where IXA cannot be used.

[6] = cited from earlier work
[7] = background statement; cited from earlier work

CC(C)(C)N=NC(N)=O [Example XIII, tert.-butylazoformamide]
t 1/2 ([1]; 120° C., gas evolution technique, trichlorobenzene): 3.00 h | t 1/2 ([1]; 130° C., gas evolution technique, trichlorobenzene): 0.87 h | t 1/2 ([1]; 150° C., gas evolution technique, trichlorobenzene): 0.14 h

CC(C)(C)NNC1(C#N)CCCCC1 [1-tert.-butylhydrazo-1-cyanocyclohexane]
stability on exposure to air ([2]; over extended periods): evolves HCN on exposure to air over extended periods

CC(C)(C)N=NC(C)(C)C#N [Example I, Alpha-(tert.-butylazo) isobutyronitrile]
solubility in petroleum solvents [3]: soluble in petroleum solvents | gas produced [4]: 179 cc. of gas per gram | toxicity relative to IXA and its decomposition residue [5]: significantly less toxic | t 1/2 ([1]; 78.8° C.): 10.0 h | t 1/2 ([1]; 90° C.): 2.0 h | t 1/2 ([1]; 100° C.): 0.54 h | t 1/2 ([1]; 110° C.): 0.20 h

CC(C)(C)N=NC1(C(N)=O)CCCCC1 [XXIV, 1-tert. butylazo-1-carbamylcyclohexane]
temperature at which it evolves nitrogen [2]: above 120 °C

CC(C)(C)N=NC(C)(C)C(N)=O [XXV, 2-t-butylazo-2-carbamylpropane]
temperature at which it evolves nitrogen [2]: above 120 °C

CC(C)(C)N=NC(C)(C#N)CCC(=O)O (stereo not drawn) [Example X, alpha-tert.-butylazo-alpha-methyl-gamma-carboxybutyronitrile]
temperature at which it begins to evolve nitrogen [2]: 85 °C | half-life ([1]; 75° C.): 11.0 h | half-life ([1]; 85° C.): 3.15 h

CC(C)(C)N=NC1(C#N)CCCCC1 [IV, 1-tert.-butylazo-1-cyanocyclohexane]
toxicity relative to IXA and its decomposition residue [5]: significantly less toxic

CC(C)(C)N=NC(=O)C(C)(C)C [Example XIX, Pivaloyl tert.-butyldiimide]
temperature at which it evolves nitrogen [2]: 35 °C

CC(C)(C)N=NC1=CCCCC1 [XXIII, 1(-tert.-butylazo)cyclohexene]
temperature at which it evolves nitrogen [2]: 60 °C

CC(C)(C)N=NC(C)(C#N)C(C)(C)C (stereo not drawn) [IX, 2-tert.-butylazo-2-cyano-3,3-dimethylbutane]
temperature at which it begins to evolve nitrogen [2]: 95 °C

CC(C)CC(C)(N=NC(C)(C)C)OOC(C)(C)CCC(C)(C)OOC(C)(CC(C)C)N=NC(C)(C)C (stereo not drawn) [LXV, 2,2,5,8,8,11,11,14,17,17,decamethyl-5,14-diisobutyl-Δ^3,15-3,4,15,16-tetraaza-6,7,12,13-tetraoxaoctadecadiene]
temperature at which it evolves nitrogen [2]: 30 °C

CC(C)OC(=O)N=NC(C)(C)c1ccccc1 [Isopropyl tert.-cumylazocarboxylate]
temperature at which it evolves nitrogen [2]: 80 °C

CC(C)(C)N=NC(=O)NCC(=O)O [XVII, tert.-butylazo-N-carboxymethylformamide]
temperature at which it begins to evolve nitrogen [2]: 60 °C

CC(C)(C)N=NC(=O)c1ccccc1 [Example XX, Benzoyl tert.-butyldiimide]
temperature at which it evolves nitrogen [2]: 25 °C

CC(C)(C#N)N=NC(C)(C)C#N [2,2'-azobisisobutyronitrile]
solubility in most of the organic common solvents ([6]; aromatic hydrocarbons, dioxane, alcohol, ether, carbon tetrachloride): very low or limited solubility | solubility in petroleum hydrocarbon solvents [6]: insoluble | toxicity [7]: toxic solid

CC1CC(C)(C)CC(C#N)(N=NC(C)(C)C)C1 (stereo not drawn) [VIII, 1-tert.-butylazo-1-cyano-3,3,5-trimethylcyclohexane]
temperature at which it begins to evolve nitrogen [2]: 100 °C

CC(C)CC(C#N)(CC(C)C)N=NC(C)(C)C [Example VII, 4-tert.-butylazo-4-cyano-2,6-dimethylheptane]
temperature at which it begins to evolve nitrogen [2]: 70 °C

CC(C)CC(C)(N=NC(C)(C)C)OOC(C)(CC(C)C)N=NC(C)(C)C (stereo not drawn) [LVIII, Di[1-(t-butylazo)-1,3-dimethylbutyl] Peroxide]
thermal stability / gas evolution, in words [2]: began to gas rapidly upon reaching room temperature

COC(=O)CNC(=O)N=NC(C)(C)C [XVI, tert.-butylazo-N-carbmethoxymethylformamide]
temperature at which it begins to evolve nitrogen [2]: 140 °C

CC(C)(C#N)N=NC(C)(C)c1ccccc1 [Example XI, Alpha-(tert.-cumylazo)isobutyronitrile]
temperature at which it begins to evolve nitrogen [2]: 55 °C

CC(C)(C)N=NC(C)(C#N)C1CC1 (stereo not drawn) [Example XII, Alpha-tert-butylazo-alpha-cyclopropylpropionitrile]
temperature at which it begins to evolve nitrogen [2]: 75 °C

Reference: US4001207A, “Tertiary-aliphatic amidazo compounds” (priority 1971, dated 1977)
